# Key:
# [1] = tested on: T1, R1C1
# T1 construct: gene speG
# [2] = tested on: T2, R3C2
# T2 construct: gene speG
# [3] = tested on: T3, R1C2
# T3 construct: gene speG
# [4] = tested on: T4, R1C3
# T4 construct: gene speG
# [5] = tested on: NCCCNCCCCNCCCN; test: purified protein; details: pH 8.0; 37.0 °C
Compound,Km [1],Km [2],Km [3],Km [4],K0.5 [5]
NCCCNCCCCNCCCN [spermine],2530 ± 710 µM,98 ± 8 µM,364 ± 8 µM,244 ± 20 µM,
(Vibrio cholerae O1 biovar El Tor str. N16961),,,,,0.222 ± 0.005 mM
